In patent publication US6780853B1, “Neuroactive steroids of the androstane and pregnane series” (priority 1995, dated 2004):
Where a name gives a salt, the structure may show the parent alone.

Legend:
[1] = molecular target: GABA receptor complex (GRC); assay: [35S]TBPS binding in rat cerebral cortex P2 homogenate; conditions: for IC50: concentration to inhibit 50% of control [35S]TBPS binding, 2 nM [35S]TBPS; for IMAX (maximum inhibition): maximum inhibition of [35S]TBPS binding
Source text: To those skilled in the art, it is known that the modulation of [^35S]t-butylbicyclophosphorothionate ([^35S]TBPS) binding is a measure of the potency and efficacy of drugs acting at the GRC, which drugs may be of potential therapeutic value in the treatment of stress, anxiety, and seizure disorders (Squires, R. F., et al., Mol, Pharmacol., 23:326 (1983); Lawrence, L. J., et al., Biochem. Biophys. Res. Comm., 123:1130-1137 (1984); Wood, et al., Pharmacol, Exp. Ther., 231:572-576 (1984)). Several experiments were performed previously to determine the nature of the modulation of [^35S]TBPS as affected by neuroactive steroids. […] Furthermore, these compounds have high potency and efficacy at the GRC, with stringent structural requirements for such activity.
The procedures for performing this assay are fully discussed in: (1) Gee, K. W. et al., European Journal of Pharmacology, 136:419-423 (1987)); and (2) Gee, et al., Molecular Pharmacology 30:218 (1986). These procedures were performed as follows:
Brains from male Sprague-Dawley rats were removed immediately following sacrifice and the cerebral cortices dissected over ice. A P2 homogenate was prepared as previously described (Gee, et al., Molecular Pharmacology 30:218 (1986)). Briefly, the cortices were gently homogenized in 032 M sucrose followed by centrifugation at 1000×g for 10 minutes. The supernatant was collected and centrifuged at 9000×g for 20 minutes. The resultant P2 pellet was suspended as a 10% (original wet weight/volume) suspension in 50 mM Na/K phosphate buffer (pH 7.4) 200 mM NaCl to form the homogenate.
One hundred microliter […] aliquots of the P2 homogenate (0.5 milligrams (mg) protein) were incubated with 2 nanomolar (nM) [^35S]TBPS (70-110 curies/millimole; New England Nuclear, Boston, Mass.) in the presence or absence of the naturally occurring steroids or their synthetic derivatives to be tested. The tested compounds were dissolved in dimethylsulfoxide (Baker Chem. Co., Phillipsburg, N.J.) and added to the incubation mixture in 5 μL aliquots. The incubation mixture was brought to a final volume of 1 mL with buffer. Non-specific binding was defined as binding in the presence of […]. The effect and specificity of GABA (Sigma Chem. Co., St. Louis, Mo.) was evaluated by performing all assays in the presence of GABA plus (+)bicuculline (Sigma Chem. Co.). Incubations maintained at 25° C. for 90 minutes (steady state conditions) were terminated by rapid filtration through glass fiber filters (No. 32, Schleicher and Schuell, Keene, N.H.). Filter-bound radioactivity was quantitated by liquid scintillation spectrophotometry. Kinetic data and compound/[^35S]TBPS dose-response curves were analyzed by nonlinear regression using a computerized iterative procedure to obtain rate constants and IC50 (concentration of compound at which half-maximal inhibition of basal [^35S]TBPS binding occurs) values.
Various compounds were screened to determine their potential as modulators of [^35S]TBPS binding in vitro. These assays were performed in accordance with the above discussed procedures. Based on these assays, we have established the structure-activity requirements for their specific interaction at the GRC and their rank order potency and efficacy. Experimental data obtained in this assay for a number of 3α-hydroxypregnan-20-one derivatives is discussed in Gee, K. W. et al., European Journal of Pharmacology, 136:419-423 (1987) and in U.S. Pat. No. 5,232,917. Table 1 provides IC50 and maximum inhibition (IMAX) measurements for numerous compounds, including examples of compounds disclosed and claimed herein. IC50 is defined as concentration of compounds to inhibit 50% of control [^35S]TBPS binding. It is an indication of a compound's in vitro potency. Maximum inhibition is an indication of a compound's in vitro efficacy.

[2] = tested on: metrazol induced convulsions; assay: Antimetrazol activity in mice; assay type: in vivo; conditions: 10 mg/kg
Protocol: Experiments were also performed to determine the physiological relevance of neuroactive steroid and GABA receptor interactions by assessing the ability of compounds of the present invention to prevent metrazol induced convulsions in mice. Mice were injected with various doses of the test compounds of the invention, 10 minutes prior to the injection of metrazol. The time to onset of myoclonus (presence of forelimb clonic activity) induced by metrazol was determined by observing each mouse for a period of 30 minutes. In control mice, metrazol (85 mg/kg) will induce convulsion in 95% of the animals.
The anticonvulsant tests are similar to that described above.

[3] = tested on: time spent on the open-arms; assay: Elevated plus-maze test; assay type: in vivo, N.I.H. Swiss-Webster mice; conditions: IP, 50% hpbcd, 10 mg/kg
Source text: The theoretical basis for the elevated plus-maze test is similar to that of the fight/dark transition test. As it was described previously by Pellow et al. J. Neurosci. Meth. 14:149-167 (1985)), the elevated plus-maze apparatus is designed to utilize the mice's natural aversion to open spaces. The apparatus consists of two open-arms and two enclosed-arms. The elevated plus-maze test allows for two measures of anxiety, the number of entries into the open-arms and the time spent on the open-arms, both expressed as a percentage of the total number of entries and time spent in/on both the open-arms and enclosed-arms.
Male N.I.H Swiss-Webster mice (Harlan, Indianapolis, Ind.) weighing 15-20 g were housed four per cage in polyethylene cages with sawdust bedding. The colony room was environmentally controlled (22° C.) with a 12 hr light/dark cycle (0600-1800 hr). Food and water were available ad libitum, except during testing. The experiments were run from 0700-1500 hr and groups were counterbalanced for time of day effects. Mice were only administered drug or vehicle once.
The method used was previously described (Lister, Psychopharmacol. 92:180-185 (1987)). The apparatus included two open arms perpendicular to two enclosed arms elevated 50 cm from the floor. Each arm was 50 cm long and the walls of the enclosed arms were 40 cm tall. The maze was made completely of black plexiglass. Incandescent 200 W light bulbs were above each of the open arms to produce a strong contrast between the open arms and the enclosed arms.
[…] Swiss-Webster mice were placed in the center of the plus-maze facing an open arm. During the 5 min test period, the number of entries onto the open arms and the enclosed arms, and the time spent in the open arms and enclosed arms were measured. All four paws had to be within an arm for the dependent variable to be measured. Therefore, the time spent in the center of the maze is not counted, so the total time spent in the open arms and the enclosed arms may not equal 5 min.

[4] = IP, 50% hpbcd, 10 min before metrazol 85 mg/kg

SMILES	IC50 [1] [nM]	IMAX (maximum inhibition) [1] [%]	% Protected [2, 4] [%]	Plus-Maze (% Control), time spent on the open-arms [3] [% Control]	% Protected ([2]; PO, 10% hpbcd) [%]	% Protected ([2]; IP, 50% hpbcd, 10 min before metrazol 85 mg/kg, listed as 3α-Hydroxy-3β-(4′-hydroxybutyn-1-yl)-17β-methoxy-5β-androstane) [%]
CC12CCC(O)(C#CCCO)CC1CCC1C2CCC2(C)C(C(=O)CSc3ccncc3)CCC12 (stereo not drawn) [3α-Hydroxy-3β-(4-hydroxybutynyl)-21-(pyrid-4-ylthio)-5β-pregnan-20-one]	15	100	50			
COC1CCC2C3CCC4CC(O)(C#CCCO)CCC4(C)C3CCC12C (stereo not drawn) [3β-(4′-Hydroxybutyn-1′-yl)-3α-hydroxy-17β-methoxy-5α-androst] [3β-(4′-Hydroxy-1-′-butynyl)-3α-hydroxy-17β-methoxy-5α-androstane]	47	104		158		
C#CCC1(O)CCC2(C)C(CCC3C2CCC2(C)C(OC)CCC32)C1 (stereo not drawn) [3α-Hydroxy-17β-methoxy-3β-(2-propynyl)-5α-androstane]	387	101	12.5			
C#C[C@@]1(O)CC[C@@]2(C)[C@@H](CC[C@@H]3[C@@H]2CC[C@]2(C)[C@@H](C(=O)CSc4ccncc4)CC[C@@H]32)C1 [3β-ethynyl-3α-hydroxy-21-(pyrid-4-ylthio)-5α-pregnan-20-one]	43	103				
C[C@@]1(O)CC[C@@]2(C)[C@@H](CC[C@@H]3[C@@H]2CC[C@]2(C)[C@@H](C(=O)COc4ccc5ncccc5c4)CC[C@@H]32)C1 [3α-hydroxy-3β-methyl-21-(quinolin-6-yloxy)-5α-pregnan-20-one]	76	96				
CC(C)O[C@H]1C[C@@]2(C)[C@@H](CC[C@H]3[C@@H]4CCC[C@@]4(C)CC[C@@H]32)C[C@@H]1O [3α-Hydroxy-2β-isopropoxy-5α-androstane, 2β-Isopropoxy-3α-hydroxy-5α-androstane]	456	98				
CCCOC1CC2(C)C(CCC3C2CCC2(C)C(C(=O)CSc4cc[n+](C)cc4)CCC32)CC1O (stereo not drawn) [3α-Hydroxy-2β-propoxy-21-(pyrid-4-ylthio)-5α-pregnan-20-one N-methyl iodide]	126	101				
C[C@]12CC[C@@H]3c4ccc(O)cc4CC[C@H]3[C@@H]1CC[C@@H]2O [17β-Estradiol, reference compound]		0				
CCCO[C@H]1C[C@@]2(C)[C@@H](CC[C@@H]3[C@@H]2CC[C@]2(C)[C@@H](C(=O)CSCCCS(=O)(=O)[O-])CC[C@@H]32)C[C@@H]1O.[Na+] [3α-hydroxy-2β-propoxy-21-thiopropanesulfonate-5α-pregnan-20-one sodium salt]	67	101				
CCCOC1CC2(C)C(CCC3C2CCC2(C)C(C(=O)COc4ccc([N+](C)(C)C)cc4)CCC32)CC1O (stereo not drawn) [3α-hydroxy-2β-propoxy-21-(4′-N,N,N-trimethylammoniumphenoxy)-5α-pregnan-20-one iodide salt]	129	92				
CO[C@H]1CC[C@H]2[C@@H]3CC[C@H]4C[C@](C)(O)CC[C@]4(C)[C@H]3CC[C@]12C [3α-Hydroxy-17β-methoxy-3βmethyl-5α-androstane]	97	97				
CC1(C2CCC3C4CCC5CC(O)(C(F)(F)F)CCC5C4CCC32C)OC(C(=O)[O-])C(C(=O)[O-])O1.[K+].[K+] (stereo not drawn) [20,20-[2′,3′-Bis(carboxy)ethylenedioxy]-3α-hydroxy-3β-trifuoromethyl-5β-19-norpregnane, dipotassium salt]					25	
C#C[C@@]1(O)CC[C@@]2(C)[C@@H](CC[C@@H]3[C@@H]2CC[C@]2(C)[C@@H](OC)CC[C@@H]32)C1 [3β-Ethynyl-3α-hydroxy-17β-methoxy-5α-androstane]	122	106		129		
C[n+]1cccc2cc(OCC(=O)C3CCC4C5CCC6CC(C)(O)CCC6(C)C5CCC34C)ccc21 (stereo not drawn) [3α-hydroxy-3β-methyl-21-(quinolin-6-yloxy)-5α-pregnan-20-one N-methyl iodide]	252	102				
COC1CCC2C3CCC4CC(O)(C(F)(F)F)CCC4(C)C3CCC12C (stereo not drawn) [3α-Hydroxy-17β-methoxy-3β-trifluoromethyl-5α-androstane]	341	100				
COCC1(O)CCC2(C)C(CCC3C2CCC2(C)C(C(=O)CSc4ccncc4)CCC32)C1 (stereo not drawn) [3α-hydroxy-3β-methoxymethyl-21-(pyrid-4-ylthio)-5α-pregnan-20-one]	38	106				
COC1CCC2C3CCC4CC(O)(C#CCCO)CCC4(C)C3CCC12C (stereo not drawn) [3α-Hydroxy-3β-(4′-hydroxybutyn-1-yl)-17α-methoxy-5β-androstane]			50			
COC1CCC2C3CCC4CC(O)(CCl)CCC4(C)C3CCC12C (stereo not drawn) [3β-Chloromethyl-3α-hydroxy-17β-methoxy-5α-androstane]	361	98	12.5			
CC12CCC(O)CC1CCC1C2CCC2(C)C(C(=O)COc3ccc[n+]([O-])c3)CCC12 (stereo not drawn) [3α-Hydroxy-21-(3′-pyridyl)oxy-5β-pregnan-20-one N-oxide]	292	62				
COC1CCC2C3CCC4CC(O)(C#CCCO)CCC4(C)C3CCC12C (stereo not drawn) [3β-(4′-Hydroxybutyn-1′yl)-3α-hydroxy-17β-methoxy-5β-androsta] [3β-(4′-Hydroxy-1-′-butynyl)-3α-hydroxy-17β-methoxy-5β-androstane]	26	105				75
